{"source": "ChEMBL document CHEMBL3286268", "about": "“Green synthesis and anti-inflammatory studies of a series of 1,1-bis(heteroaryl)alkane derivatives” (Eur J Med Chem, 2014)", "key": {"RAW264.7 [1]": {"tested_on": "RAW264.7", "test": "Antiinflammatory activity in mouse RAW264.7 cells assessed as inhibition of LPS-induced nitrite production at 50 uM after 22 hrs by Griess method relative to LPS-treated control", "assay_type": "functional", "details": "RAW264.7, 22 h"}, "RAW264.7 [2]": {"tested_on": "RAW264.7", "test": "Antiinflammatory activity in mouse RAW264.7 cells assessed as inhibition of LPS-induced nitrite production after 22 hrs by Griess method", "assay_type": "functional, cell-based", "details": "RAW264.7, 22 h"}, "[3]": {"test": "Cytotoxicity against mouse RAW264.7 cells assessed as cell viability at 50 uM after 22 hrs by MTT assay relative to control", "assay_type": "cell-based", "details": "read-out: Activity"}}, "data": [{"smiles": "Cc1ccc(C(CCc2ccccc2)c2ccc(C)o2)o1", "values": [{"measurement": "inhibition at 50 µM", "setting": "RAW264.7 [1]", "result": 46.8, "unit": "%"}, {"measurement": "IC50", "setting": "RAW264.7 [2]", "result": 60.8, "unit": "µM"}, {"measurement": "viability at 22 h, 50 µM", "setting": "[3]", "result": 100, "unit": "%"}]}, {"smiles": "Cc1ccc(C(c2ccccc2)c2ccc(C)o2)o1", "values": [{"measurement": "inhibition at 50 µM", "setting": "RAW264.7 [1]", "result": 33.4, "unit": "%"}, {"measurement": "viability at 22 h, 50 µM", "setting": "[3]", "result": 99.3, "unit": "%"}]}, {"smiles": "CCC(c1ccc(C)o1)c1ccc(C)o1", "values": [{"measurement": "inhibition at 50 µM", "setting": "RAW264.7 [1]", "result": 30.9, "unit": "%"}, {"measurement": "viability at 22 h, 50 µM", "setting": "[3]", "result": 101, "unit": "%"}]}, {"smiles": "CCc1ccc(C(c2ccc([N+](=O)[O-])cc2)c2ccc(CC)o2)o1", "values": [{"measurement": "inhibition at 50 µM", "setting": "RAW264.7 [1]", "result": 63.3, "unit": "%"}, {"measurement": "IC50", "setting": "RAW264.7 [2]", "result": 41.1, "unit": "µM"}, {"measurement": "viability at 22 h, 50 µM", "setting": "[3]", "result": 101, "unit": "%"}]}, {"smiles": "COc1cc(C(c2ccc(C)o2)c2ccc(C)o2)ccc1O", "values": [{"measurement": "inhibition at 50 µM", "setting": "RAW264.7 [1]", "result": 63.7, "unit": "%"}, {"measurement": "IC50", "setting": "RAW264.7 [2]", "result": 44, "unit": "µM"}, {"measurement": "viability at 22 h, 50 µM", "setting": "[3]", "result": 98.2, "unit": "%"}]}, {"smiles": "Cc1ccc(C(c2ccc([N+](=O)[O-])cc2)c2ccc(C)o2)o1", "values": [{"measurement": "inhibition at 50 µM", "setting": "RAW264.7 [1]", "result": 73.2, "unit": "%"}, {"measurement": "IC50", "setting": "RAW264.7 [2]", "result": 42.4, "unit": "µM"}, {"measurement": "viability at 22 h, 50 µM", "setting": "[3]", "result": 96.3, "unit": "%"}]}, {"smiles": "CCC(CC)C(c1ccc(C)o1)c1ccc(C)o1", "values": [{"measurement": "inhibition at 50 µM", "setting": "RAW264.7 [1]", "result": 26.6, "unit": "%"}, {"measurement": "viability at 22 h, 50 µM", "setting": "[3]", "result": 101, "unit": "%"}]}, {"smiles": "O=[N+]([O-])c1ccc(C(c2ccc[nH]2)c2ccc[nH]2)cc1", "values": [{"measurement": "inhibition at 50 µM", "setting": "RAW264.7 [1]", "result": 26.9, "unit": "%"}, {"measurement": "viability at 22 h, 50 µM", "setting": "[3]", "result": 95.8, "unit": "%"}]}, {"smiles": "Cc1ccc(C(c2ccc(Cl)cc2)c2ccc(C)o2)o1", "values": [{"measurement": "inhibition at 50 µM", "setting": "RAW264.7 [1]", "result": 39.5, "unit": "%"}, {"measurement": "IC50", "setting": "RAW264.7 [2]", "result": 50.7, "unit": "µM"}, {"measurement": "viability at 22 h, 50 µM", "setting": "[3]", "result": 101, "unit": "%"}]}, {"smiles": "CCc1ccc(C(c2ccccc2)c2ccc(CC)o2)o1", "values": [{"measurement": "inhibition at 50 µM", "setting": "RAW264.7 [1]", "result": 41.5, "unit": "%"}, {"measurement": "IC50", "setting": "RAW264.7 [2]", "result": 70.5, "unit": "µM"}, {"measurement": "viability at 22 h, 50 µM", "setting": "[3]", "result": 101, "unit": "%"}]}, {"smiles": "Cc1ccc(C(c2ccc(C)o2)C2CCCCC2)o1", "values": [{"measurement": "inhibition at 50 µM", "setting": "RAW264.7 [1]", "result": 36.9, "unit": "%"}, {"measurement": "viability at 22 h, 50 µM", "setting": "[3]", "result": 102, "unit": "%"}]}, {"smiles": "CCc1ccc(C(c2ccc([N+](=O)[O-])cc2)c2ccc(CC)[nH]2)[nH]1", "values": [{"measurement": "inhibition at 50 µM", "setting": "RAW264.7 [1]", "result": 50.7, "unit": "%"}, {"measurement": "IC50", "setting": "RAW264.7 [2]", "result": 56.9, "unit": "µM"}, {"measurement": "viability at 22 h, 50 µM", "setting": "[3]", "result": 99.2, "unit": "%"}]}, {"smiles": "CCc1ccc(C(CCc2ccccc2)c2ccc(CC)o2)o1", "values": [{"measurement": "inhibition at 50 µM", "setting": "RAW264.7 [1]", "result": 39.4, "unit": "%"}, {"measurement": "IC50", "setting": "RAW264.7 [2]", "result": 74.2, "unit": "µM"}, {"measurement": "viability at 22 h, 50 µM", "setting": "[3]", "result": 101, "unit": "%"}]}, {"smiles": "COc1ccc(C(c2ccc(C)o2)c2ccc(C)o2)cc1", "values": [{"measurement": "inhibition at 50 µM", "setting": "RAW264.7 [1]", "result": 34.6, "unit": "%"}, {"measurement": "viability at 22 h, 50 µM", "setting": "[3]", "result": 97.8, "unit": "%"}]}, {"smiles": "Cc1ccc(C(c2ccc(Br)cc2)c2ccc(C)o2)o1", "values": [{"measurement": "inhibition at 50 µM", "setting": "RAW264.7 [1]", "result": 24.9, "unit": "%"}, {"measurement": "viability at 22 h, 50 µM", "setting": "[3]", "result": 101, "unit": "%"}]}, {"smiles": "N=C(N)NN", "note": "[PIMAGEDINE]", "values": [{"measurement": "inhibition at 50 µM", "setting": "RAW264.7 [1]", "result": 70.2, "unit": "%"}, {"measurement": "IC50", "setting": "RAW264.7 [2]", "result": 43.3, "unit": "µM"}, {"measurement": "viability at 22 h, 50 µM", "setting": "[3]", "result": 100, "unit": "%"}]}, {"smiles": "CCCCC(c1ccc(C)o1)c1ccc(C)o1", "values": [{"measurement": "inhibition at 50 µM", "setting": "RAW264.7 [1]", "result": 31.7, "unit": "%"}, {"measurement": "viability at 22 h, 50 µM", "setting": "[3]", "result": 100, "unit": "%"}]}, {"smiles": "Cc1ccc(C(c2ccc(F)cc2)c2ccc(C)o2)o1", "values": [{"measurement": "inhibition at 50 µM", "setting": "RAW264.7 [1]", "result": 64.2, "unit": "%"}, {"measurement": "IC50", "setting": "RAW264.7 [2]", "result": 44.8, "unit": "µM"}, {"measurement": "viability at 22 h, 50 µM", "setting": "[3]", "result": 97.8, "unit": "%"}]}, {"smiles": "Cc1ccc(C(CCc2ccccc2)c2ccc(C)s2)s1", "values": [{"measurement": "inhibition at 50 µM", "setting": "RAW264.7 [1]", "result": 21.5, "unit": "%"}, {"measurement": "viability at 22 h, 50 µM", "setting": "[3]", "result": 103, "unit": "%"}]}, {"smiles": "Cc1ccc(C(CC(C)C)c2ccc(C)o2)o1", "values": [{"measurement": "inhibition at 50 µM", "setting": "RAW264.7 [1]", "result": 21.4, "unit": "%"}, {"measurement": "viability at 22 h, 50 µM", "setting": "[3]", "result": 101, "unit": "%"}]}, {"smiles": "c1ccc(C(c2ccc[nH]2)c2ccc[nH]2)cc1", "values": [{"measurement": "inhibition at 50 µM", "setting": "RAW264.7 [1]", "result": 2.1, "unit": "%"}, {"measurement": "viability at 22 h, 50 µM", "setting": "[3]", "result": 100, "unit": "%"}]}]}
